Laboratory results reported in ChEMBL document CHEMBL3991601, “The target landscape of clinical kinase drugs” (Science, 2017).
The source made the active and inactive calls.

Key:
TGF-beta receptor type-1 = molecular target: T1, TGF-beta receptor type-1 (Homo sapiens, UniProt P36897)
T1 sequence (P36897 whole entry): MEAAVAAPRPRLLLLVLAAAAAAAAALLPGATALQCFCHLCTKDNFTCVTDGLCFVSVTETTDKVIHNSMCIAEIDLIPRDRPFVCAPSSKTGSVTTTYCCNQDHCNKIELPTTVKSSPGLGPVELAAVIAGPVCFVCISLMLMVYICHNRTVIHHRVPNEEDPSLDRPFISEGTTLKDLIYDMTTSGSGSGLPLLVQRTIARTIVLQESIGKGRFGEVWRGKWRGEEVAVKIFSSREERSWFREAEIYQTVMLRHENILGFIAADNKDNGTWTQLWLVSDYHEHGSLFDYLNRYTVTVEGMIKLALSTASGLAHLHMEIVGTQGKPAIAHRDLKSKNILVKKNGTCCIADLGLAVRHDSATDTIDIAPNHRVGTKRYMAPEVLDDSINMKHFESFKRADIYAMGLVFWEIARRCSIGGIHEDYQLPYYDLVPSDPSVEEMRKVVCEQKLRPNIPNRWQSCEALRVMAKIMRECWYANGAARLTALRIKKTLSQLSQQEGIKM

[1] = molecular target: T2, cGMP-dependent protein kinase 1 (Homo sapiens, UniProt Q13976)
T2 sequence (Q13976 whole entry): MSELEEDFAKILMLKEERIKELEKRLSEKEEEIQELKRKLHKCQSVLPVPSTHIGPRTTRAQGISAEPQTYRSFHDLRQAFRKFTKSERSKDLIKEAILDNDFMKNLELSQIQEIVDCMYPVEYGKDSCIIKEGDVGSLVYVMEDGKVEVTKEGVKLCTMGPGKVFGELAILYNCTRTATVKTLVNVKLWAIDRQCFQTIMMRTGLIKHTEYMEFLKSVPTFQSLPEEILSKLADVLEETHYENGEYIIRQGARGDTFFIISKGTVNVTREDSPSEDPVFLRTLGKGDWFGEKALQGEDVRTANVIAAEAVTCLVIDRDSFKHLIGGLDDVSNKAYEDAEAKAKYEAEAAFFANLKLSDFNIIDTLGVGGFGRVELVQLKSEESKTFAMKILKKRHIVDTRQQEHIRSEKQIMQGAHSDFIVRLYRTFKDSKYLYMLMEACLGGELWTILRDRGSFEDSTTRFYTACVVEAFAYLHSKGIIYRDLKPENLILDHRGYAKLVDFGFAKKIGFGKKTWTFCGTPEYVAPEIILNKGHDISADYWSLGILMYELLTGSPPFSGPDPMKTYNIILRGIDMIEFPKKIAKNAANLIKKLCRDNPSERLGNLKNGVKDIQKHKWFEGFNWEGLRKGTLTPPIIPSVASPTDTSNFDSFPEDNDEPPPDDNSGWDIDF

[2] = molecular target: T3, DNA replication licensing factor MCM4 (Homo sapiens, UniProt P33991)
T3 sequence (P33991 whole entry): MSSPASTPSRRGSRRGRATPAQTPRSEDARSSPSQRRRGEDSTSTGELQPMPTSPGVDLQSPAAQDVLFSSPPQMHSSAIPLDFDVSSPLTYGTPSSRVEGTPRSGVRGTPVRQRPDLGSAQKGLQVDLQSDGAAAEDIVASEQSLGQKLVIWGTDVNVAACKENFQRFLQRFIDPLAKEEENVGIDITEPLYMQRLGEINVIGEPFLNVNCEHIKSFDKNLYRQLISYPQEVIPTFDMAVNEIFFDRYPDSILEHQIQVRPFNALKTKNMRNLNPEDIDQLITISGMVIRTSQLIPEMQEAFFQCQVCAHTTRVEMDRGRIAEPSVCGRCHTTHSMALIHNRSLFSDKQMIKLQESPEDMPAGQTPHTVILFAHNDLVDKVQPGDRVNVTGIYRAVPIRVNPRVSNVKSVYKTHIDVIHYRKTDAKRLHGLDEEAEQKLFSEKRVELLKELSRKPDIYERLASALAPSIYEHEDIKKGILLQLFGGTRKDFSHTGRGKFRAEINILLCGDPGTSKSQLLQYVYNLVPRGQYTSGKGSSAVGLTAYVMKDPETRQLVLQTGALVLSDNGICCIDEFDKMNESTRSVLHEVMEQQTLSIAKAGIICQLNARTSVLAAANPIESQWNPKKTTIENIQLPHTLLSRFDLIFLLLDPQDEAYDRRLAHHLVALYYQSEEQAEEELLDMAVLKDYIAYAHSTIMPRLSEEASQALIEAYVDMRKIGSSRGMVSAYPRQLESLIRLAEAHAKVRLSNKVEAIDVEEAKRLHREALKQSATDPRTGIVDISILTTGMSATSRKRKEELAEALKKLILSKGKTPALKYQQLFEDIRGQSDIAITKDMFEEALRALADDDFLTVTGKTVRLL

[3] = molecular target: Mitogen-activated protein kinase kinase kinase 20 (Homo sapiens, UniProt Q9NYL2)
[4] = molecular target: T4, Non-receptor tyrosine-protein kinase TNK1 (Homo sapiens, UniProt Q13470)
T4 sequence (Q13470 whole entry): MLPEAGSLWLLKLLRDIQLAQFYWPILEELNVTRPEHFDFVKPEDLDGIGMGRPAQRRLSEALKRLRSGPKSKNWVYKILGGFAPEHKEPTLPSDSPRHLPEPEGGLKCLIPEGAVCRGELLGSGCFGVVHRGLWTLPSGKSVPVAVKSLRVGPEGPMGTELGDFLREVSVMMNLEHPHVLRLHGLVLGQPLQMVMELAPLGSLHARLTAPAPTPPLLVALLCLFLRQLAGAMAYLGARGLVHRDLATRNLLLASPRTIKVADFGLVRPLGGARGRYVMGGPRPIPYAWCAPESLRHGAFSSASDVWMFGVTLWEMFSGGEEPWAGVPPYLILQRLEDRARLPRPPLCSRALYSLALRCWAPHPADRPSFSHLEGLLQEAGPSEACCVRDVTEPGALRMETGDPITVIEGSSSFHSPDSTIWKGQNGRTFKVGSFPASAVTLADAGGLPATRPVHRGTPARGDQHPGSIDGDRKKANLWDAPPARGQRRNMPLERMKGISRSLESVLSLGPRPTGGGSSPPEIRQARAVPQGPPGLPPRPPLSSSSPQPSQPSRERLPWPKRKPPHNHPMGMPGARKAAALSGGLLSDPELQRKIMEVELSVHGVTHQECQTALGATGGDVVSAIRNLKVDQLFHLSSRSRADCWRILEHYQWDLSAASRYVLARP

[5] = molecular target: Casein kinase I isoform alpha (Homo sapiens, UniProt P48729)
[6] = molecular target: 26S proteasome regulatory subunit 6B (Homo sapiens, UniProt P43686)

Measured: Kd
Note: in the data inactive means no Kd found up to 30 µM.

Sequence of Casein kinase I isoform alpha (P48729 whole entry, canonical isoform): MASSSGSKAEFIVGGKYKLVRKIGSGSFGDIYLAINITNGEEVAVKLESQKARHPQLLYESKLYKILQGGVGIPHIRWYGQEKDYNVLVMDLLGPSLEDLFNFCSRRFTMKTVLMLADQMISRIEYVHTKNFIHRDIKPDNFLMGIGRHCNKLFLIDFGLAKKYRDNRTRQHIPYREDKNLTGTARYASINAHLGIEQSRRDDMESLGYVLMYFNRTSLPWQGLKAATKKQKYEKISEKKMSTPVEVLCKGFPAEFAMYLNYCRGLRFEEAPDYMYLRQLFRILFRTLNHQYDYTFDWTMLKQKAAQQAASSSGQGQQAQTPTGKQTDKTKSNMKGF
Sequence of 26S proteasome regulatory subunit 6B (P43686 whole entry): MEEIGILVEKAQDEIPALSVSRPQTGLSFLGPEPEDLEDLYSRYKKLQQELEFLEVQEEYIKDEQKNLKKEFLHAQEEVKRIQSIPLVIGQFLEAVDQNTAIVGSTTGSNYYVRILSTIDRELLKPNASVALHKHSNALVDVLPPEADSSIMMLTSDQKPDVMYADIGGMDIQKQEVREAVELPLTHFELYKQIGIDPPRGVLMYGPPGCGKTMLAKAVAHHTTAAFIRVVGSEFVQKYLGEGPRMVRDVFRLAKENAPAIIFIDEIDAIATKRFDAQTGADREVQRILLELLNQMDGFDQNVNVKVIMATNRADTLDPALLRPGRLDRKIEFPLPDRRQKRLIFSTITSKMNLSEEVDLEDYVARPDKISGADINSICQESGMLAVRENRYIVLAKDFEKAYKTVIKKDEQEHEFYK
Sequence of Mitogen-activated protein kinase kinase kinase 20 (Q9NYL2 whole entry): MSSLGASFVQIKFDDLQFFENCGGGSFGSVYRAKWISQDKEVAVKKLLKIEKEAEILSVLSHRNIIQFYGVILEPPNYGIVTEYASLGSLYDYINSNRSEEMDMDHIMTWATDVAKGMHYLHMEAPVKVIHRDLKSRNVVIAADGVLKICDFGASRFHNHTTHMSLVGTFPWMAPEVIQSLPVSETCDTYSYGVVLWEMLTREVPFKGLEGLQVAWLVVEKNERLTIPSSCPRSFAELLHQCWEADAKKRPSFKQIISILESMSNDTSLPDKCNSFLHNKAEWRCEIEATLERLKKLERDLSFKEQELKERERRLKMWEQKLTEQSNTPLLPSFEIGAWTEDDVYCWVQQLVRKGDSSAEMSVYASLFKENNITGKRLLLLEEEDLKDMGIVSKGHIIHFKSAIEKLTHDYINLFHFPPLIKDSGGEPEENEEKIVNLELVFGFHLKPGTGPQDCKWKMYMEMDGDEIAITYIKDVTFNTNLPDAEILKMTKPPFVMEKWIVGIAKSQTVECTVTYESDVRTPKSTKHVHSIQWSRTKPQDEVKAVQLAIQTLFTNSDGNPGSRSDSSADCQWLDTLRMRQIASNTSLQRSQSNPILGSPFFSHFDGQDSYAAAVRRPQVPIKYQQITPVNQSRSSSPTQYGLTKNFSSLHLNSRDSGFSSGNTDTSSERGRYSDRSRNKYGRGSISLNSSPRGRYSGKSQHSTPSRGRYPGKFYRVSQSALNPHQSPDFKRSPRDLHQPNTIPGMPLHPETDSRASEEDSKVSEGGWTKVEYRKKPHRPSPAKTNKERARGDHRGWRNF

O=c1[nH]c([C@@H]2CCCN2)nc2c1oc1ccc(Cl)cc12
inactive: TGF-beta receptor type-1 > 30 µM | [1] > 30 µM | [2] > 30 µM | [3] > 30 µM | [4] > 30 µM | [5] > 30 µM | [6] > 30 µM

Cn1cc(-c2[nH]c3cc(NC(=O)[C@H](N)C4CCCCC4)cc4c3c2C=NNC4=O)cn1
inactive: TGF-beta receptor type-1 > 30 µM | [1] > 30 µM | [2] > 30 µM | [3] > 30 µM | [4] > 30 µM | [5] > 30 µM | [6] > 30 µM

CCN1CCN(Cc2ccc(Nc3ncc(F)c(-c4cc(F)c5nc(C)n(C(C)C)c5c4)n3)nc2)CC1 [ABEMACICLIB]
inactive: TGF-beta receptor type-1 > 30 µM | [1] > 30 µM | [2] > 30 µM | [3] > 30 µM | [4] > 30 µM | [5] > 30 µM | [6] > 30 µM

Cc1c(NC(=O)OC[C@@H]2COCCN2)cn2ncnc(Nc3ccc4c(cnn4Cc4cccc(F)c4)c3)c12 [AC-480]
inactive: TGF-beta receptor type-1 > 30 µM | [1] > 30 µM | [2] > 30 µM | [3] > 30 µM | [4] > 30 µM | [5] > 30 µM | [6] > 30 µM

C=CCn1c(=O)c2cnc(Nc3ccc(N4CCN(C)CC4)cc3)nc2n1-c1cccc(C(C)(C)O)n1 [ADAVOSERTIB]
inactive: TGF-beta receptor type-1 > 30 µM | [1] > 30 µM | [2] > 30 µM | [3] > 30 µM | [4] > 30 µM | [6] > 30 µM

CN(C)C/C=C/C(=O)Nc1cc2c(Nc3ccc(F)c(Cl)c3)ncnc2cc1O[C@H]1CCOC1 [AFATINIB]
inactive: [2] > 30 µM | [6] > 30 µM

CCc1cc2c(cc1N1CCC(N3CCOCC3)CC1)C(C)(C)c1[nH]c3cc(C#N)ccc3c1C2=O [ALECTINIB]
inactive: TGF-beta receptor type-1 > 30 µM | [1] > 30 µM | [2] > 30 µM | [3] > 30 µM | [4] > 30 µM | [5] > 30 µM | [6] > 30 µM

COc1ccc2c(OCc3nnc4ccc(-c5ccccc5)nn34)ccnc2c1 [AMG-208]
inactive: TGF-beta receptor type-1 > 30 µM | [1] > 30 µM | [2] > 30 µM | [3] > 30 µM | [4] > 30 µM | [5] > 30 µM | [6] > 30 µM

CCN(CCCOc1ccc2c(Nc3cc(CC(=O)Nc4cccc(F)c4)n[nH]3)ncnc2c1)CCOP(=O)(O)O [BARASERTIB]
inactive: TGF-beta receptor type-1 > 30 µM | [1] > 30 µM | [2] > 30 µM | [3] > 30 µM | [4] > 30 µM | [6] > 30 µM

C[C@@]1(C(=O)Nc2ccc(F)nc2)CCCN1c1nc(Nc2cc(C3CC3)n[nH]2)c2cccn2n1 [BMS-754807]
inactive: [2] > 30 µM | [6] > 30 µM

COc1cc2c(Oc3ccc4[nH]c(C)cc4c3F)ncnc2cc1OCCCN1CCCC1 [CEDIRANIB]
inactive: [2] > 30 µM | [6] > 30 µM

Cn1c(=O)n(-c2ccc(C(C)(C)C#N)cc2)c2c3cc(-c4cnc5ccccc5c4)ccc3ncc21 [DACTOLISIB]
inactive: TGF-beta receptor type-1 > 30 µM | [1] > 30 µM | [2] > 30 µM | [3] > 30 µM | [4] > 30 µM | [6] > 30 µM

O=S(=O)(c1cccc2cnccc12)N1CCCNCC1 [FASUDIL]
inactive: TGF-beta receptor type-1 > 30 µM | [2] > 30 µM | [3] > 30 µM | [4] > 30 µM | [6] > 30 µM

O=S(=O)(c1cccc2c(O)nccc12)N1CCCNCC1 [HYDROXYFASUDIL]
inactive: [1] > 30 µM | [2] > 30 µM | [3] > 30 µM | [4] > 30 µM | [5] > 30 µM | [6] > 30 µM

C[C@]1(O)C[C@@H](c2nc(-c3ccc4ccc(-c5ccccc5)nc4c3)c3c(N)nccn32)C1 [LINSITINIB]
inactive: TGF-beta receptor type-1 > 30 µM | [2] > 30 µM | [4] > 30 µM | [6] > 30 µM

N#CCNC(=O)c1ccc(-c2ccnc(Nc3ccc(N4CCOCC4)cc3)n2)cc1 [MOMELOTINIB]
inactive: TGF-beta receptor type-1 > 30 µM | [1] > 30 µM | [2] > 30 µM | [4] > 30 µM | [5] > 30 µM | [6] > 30 µM

CC1(C)CNc2cc(NC(=O)c3cccnc3NCc3ccncc3)ccc21 [MOTESANIB]
inactive: [2] > 30 µM | [6] > 30 µM

CN(c1ncccc1CNc1nc(Nc2ccc3c(c2)CC(=O)N3)ncc1C(F)(F)F)S(C)(=O)=O [PF-00562271]
inactive: TGF-beta receptor type-1 > 30 µM | [2] > 30 µM | [4] > 30 µM | [6] > 30 µM

CC(C)CC(=O)Nc1[nH]nc2c1CN(C(=O)C1CCN(C)CC1)C2(C)C [PHA-793887]
inactive: TGF-beta receptor type-1 > 30 µM | [2] > 30 µM | [3] > 30 µM | [4] > 30 µM | [5] > 30 µM | [6] > 30 µM

Cn1cnc2c(F)c(Nc3ccc(Br)cc3Cl)c(C(=O)NOCCO)cc21 [SELUMETINIB]
inactive: [2] > 30 µM | [6] > 30 µM

C=CCN(/C=C1/C(=O)O[C@H](COC)[C@@]2(C)C1=C(O)C(=O)C1=C2[C@H](OC(C)=O)C[C@]2(C)C(=O)CC[C@@H]12)CC=C [SONOLISIB]
inactive: TGF-beta receptor type-1 > 30 µM | [1] > 30 µM | [3] > 30 µM | [4] > 30 µM | [5] > 30 µM | [6] > 30 µM

COc1cc2c(N3CCN(C(=O)Nc4ccc(OC(C)C)cc4)CC3)ncnc2cc1OCCCN1CCCCC1 [TANDUTINIB]
inactive: [2] > 30 µM | [6] > 30 µM
